Experimental data from patent publication US20210395311A1, “CYCLIC PEPTIDE DIMERS” (New York University, priority 2019, published 2021).
Entries after “also recorded” stand apart in the source; their conditions may differ. Bridge positions count the residues as written; N and C are the ends. Ends that are not written are not given here. I, II: the chains in the order shown.

Assays:
[1] = test system: B16F10 mouse melanoma cells; assay: CIF in vitro bioassay: contact inhibitory response of B16F10 cells to test samples; format: cell-based; conditions: for contact inhibition activity of cyclic peptide dimer isomers: peptides A-C unprotected, D-F with one Acm-protected Cys per ring; for CIF activity of synthesized monomer and dimer: monomer and dimer separated by RP-HPLC, each separately bioassayed
Text: Contact Inhibitory Factor is a Structurally Novel Endogenous Cyclic Decapeptide Dimer. Determining the Structure of the CIF Molecule—Overall Approach. Identifying the molecule responsible for restoring contact inhibition of growth to melanoma cells first required production of the CIF positive culture medium from the serum free AM cell line (SFAMCM), followed by column chromatography, electrophoresis and mass spectroscopy of this culture medium. Samples obtained after each procedure were evaluated for CIF activity with an in vitro bioassay (Bioassay described herein). Identification of CIF structure evolved in three stages: (1) the CIF active conditioned medium from the AM cells (SFAMCM) contained a single decapeptide; (2) the decapeptide is head-to-tail cyclic; (3) the complete bioactive CIF molecule is a dimer composed of identical disulfide linked cyclic decapeptides. An in vitro bioassay used to monitor and guide purification involved the contact inhibitory response of B16F10 mouse melanoma cells to test samples. The latter included (1) CIF-containing medium from both the AM and revertant FF cell lines; (2) all fractions derived from the AM medium during purification; (3) the synthetic CIF peptide. Results were evaluated independently by two investigators. Samples were graded from 0 to 4, where 0 indicated no activity and 4 indicated maximum activity. Only samples graded 3 or 4 by both investigators were selected for purification.
Bioassay. Preparation of Samples. Conditioned Culture Medium (SFFFCM) and (SFAMCM). The positive control was the CIF positive conditioned culture medium from the FF cell line, SFFFCM. The negative control was DMEM 10% FBS. 3.6 ml of the sample was pipetted into a sterile 15 ml tube and heat activated at 80° C.×10 mins (minutes). After cooling to room temperature 0.4 ml FBS was added to make the FBS concentration 10%. For different volumes of conditioned culture medium the appropriate volume of FBS was added to make the final FBS concentration 10%. Both SFFFCM and SFAMCM were lyophilized and stored in desiccator jars under vacuum at 3° C.
Lyophilized Samples. To prepare the SFFFCM and the SFAMCM for the bioassay they were reconstituted with DMEM, heat activated at 80° C.×10 mins and cooled to room temperature. Sufficient volume of FBS was added to make the final FBS concentration 10%. The final volume of the sample was at least 2 ml to ensure that there was enough material for refeeding the bioassay plates.
Dilution of Samples. The samples were tested at 1:1 (undiluted), 1:2 and 1:4. The dilutions were made with DMEM 10% FBS. Higher dilutions may be used as needed. Each well contained 0.2 ml of sample, including the positive and negative controls. Each sample was done in duplicate. The wells were refed with fresh sample after 48 hrs.
Setting up the Bioassay. Using a 96 well flat bottom plate, 0.2 ml sterile water was pipetted into all outside wells. 0.2 ml 10% DMEM containing 20,000 B16F10 cells were pipetted into each well for the bioassay. Each sample was done in duplicate, including positive and negative controls. […]. The plate was placed in a 37° C., 5% CO2 incubator for approximately 4 hours to allow for cells to attach and spread. The time for attachment may vary for other cell lines. After the cells had attached and spread, the DMEM was removed and replaced with 0.2 ml of sample, positive and negative controls. The wells were observed daily and scored for CIF activity. The wells were refed after 48 hours or as needed, 0.2 ml for weekdays, 0.3 ml for weekends.
Scoring for CIF Activity. The samples were scored for CIF activity as follows:
4+=All cells are contact inhibited, flattened with an elongated fibroblast-like morphology. 3+=Not all cells are contact inhibited, elongated or fibroblast-like. There are a few scattered clusters of dividing cells. 2+=Fewer contact Inhibited cells and more clusters of dividing cells. […]

[2] = Solubility of the synthetic peptides; format: physicochemical; conditions: 10% acetonitrile in water was used to dissolve
Text: It was synthesized separately. For 324822, protected linear peptide was cleaved from resin and cyclized in DMF following the above procedure. After removing the protecting groups, the peptide was isolated by RP-HPLC purification. […] 10% acetonitrile in water was used to dissolve the peptides.

Row | Substance | contact inhibition activity of cyclic peptide dimer isomers [1] | further results
1 | peptide D: SEQ ID NO:1 head to tail cyclized, attached via a disulfide bond, one Cys on each sequence acetamidomethyl (Acm) protected (chain 1 GMMCVTHCNG; chain 2 GMMCVTHCNG; disulfide (positions not given here); also: one Cys per chain Acm-protected, which not given here, head-to-tail to a chain's N/C-terminus) | did not have activity; also recorded: not effective contact inhibitors | 
2 | peptide E: SEQ ID NO:1 head to tail cyclized, attached via a disulfide bond, one Cys on each sequence acetamidomethyl (Acm) protected (chain 1 GMMCVTHCNG; chain 2 GMMCVTHCNG; disulfide (positions not given here); also: one Cys per chain Acm-protected, which not given here, head-to-tail to a chain's N/C-terminus) | did not have activity; also recorded: not effective contact inhibitors | 
3 | peptide F: SEQ ID NO:1 head to tail cyclized, attached via a disulfide bond, one Cys on each sequence acetamidomethyl (Acm) protected (chain 1 GMMCVTHCNG; chain 2 GMMCVTHCNG; disulfide (positions not given here); also: one Cys per chain Acm-protected, position not given here, head-to-tail to a chain's N/C-terminus, head-to-tail to a chain's N/C-terminus) | did not have activity; also recorded: not effective contact inhibitors | 
4 | peptide B: two head-to-tail cyclized SEQ ID NO:1 peptides; Cys at position 4 disulfide bonded to Cys at position 4 of the second (chain 1 GMMCVTHCNG; chain 2 GMMCVTHCNG; disulfide I:4-II:4; cysteine pairing not given here; also: head-to-tail to a chain's N/C-terminus) | suitable contact inhibitors | 
5 | c (Gly-Met-Met-Cys-Val-Thr-His-Cys-Asn-Gly (SEQ ID NO:1)) w/Cys-Cys bridge (cyclo(GMMCVTHCNG); disulfide 4-8 (inferred)) [compound 324822] |  | solubility in 100% aqueous solution [2]: not soluble
6 | monomer: synthetic head-to-tail cyclic decapeptide Gly-Met-Met-Cys-Val-Thr-His-Cys-Asn-Gly (SEQ ID NO:1), peak at 1034 Da (GMMCVTHCNG; head-to-tail cyclized) |  | CIF activity of synthesized monomer and dimer [1]: CIF negative
7 | peptide C: two head-to-tail cyclized SEQ ID NO:1 peptides; Cys at position 8 disulfide bonded to Cys at position 4 of the second (chain 1 GMMCVTHCNG; chain 2 GMMCVTHCNG; disulfide I:8-II:4; cysteine pairing not given here; also: head-to-tail to a chain's N/C-terminus) | suitable contact inhibitors | 
8 | dimer: synthesized CIF dimer of two identical disulfide linked head-to-tail cyclic decapeptides (SEQ ID NO:1), peak at 2068 Da (cyclo(GMMCVTHCNG); also: disulfide-linked dimer of two identical cyclic peptides, Cys not given here) |  | CIF activity of synthesized monomer and dimer [1]: strongly positive; CIF activity of synthesized monomer and dimer ([1]; listed as synthetic dimer): CIF positive
9 | peptide A: two head-to-tail cyclized SEQ ID NO:1 peptides; Cys at position 8 disulfide bonded to Cys at position 8 of the second (chain 1 GMMCVTHCNG; chain 2 GMMCVTHCNG; disulfide I:8-II:8; cysteine pairing not given here; also: head-to-tail to a chain's N/C-terminus) | suitable contact inhibitors | 
